Results on 13 compounds are retold here after patent US9303015B2, “Heteroaryl linked quinolinyl modulators of RORγt” (Janssen Pharmaceutica NV, priority 2012, dated 2016).

Test [1] addresses human RORγt ligand binding domain (RORγt LBD) (Homo sapiens (Human), UniProt P51449). In words: RORγt ThermoFluor assay (thermal shift, binding affinity). Conditions: estimated from thermal shift concentration response. How it is done: This approach is applicable to a wide variety of systems, and rigorous in theoretical interpretation through quantitation of equilibrium binding constants (KD).
The shift in the melting point described as a ΔTm is proportional to the concentration and affinity of the ligand.
ThermoFluor® experiments were carried out using instruments owned by Janssen Research and Discovery, L.L.C. through its acquisition of 3-Dimensional Pharmaceuticals, Inc. 1,8-ANS (Invitrogen) was used as a fluorescent dye. Protein and compound solutions are dispensed into black 384-well polypropylene PCR microplates (Abgene) and overlayed with silicone oil (1 μL, Fluka, type DC 200) to prevent evaporation.
Bar-coded assay plates are robotically loaded onto a thermostatically controlled PCR-type thermal block and then heated at a typical ramp-rate of 1° C./min for all experiments. Fluorescence was measured by continuous illumination with UV light (Hamamatsu LC6) supplied via fiber optic and filtered through a band-pass filter (380-400 nm; >60D cutoff). Fluorescence emission of the entire 384-well plate was detected by measuring light intensity using a CCD camera (Sensys, Roper Scientific) filtered to detect 500±25 nm, resulting in simultaneous and independent readings of all 384 wells. Images were collected at each temperature, and the sum of the pixel intensity in a given area of the assay plate was recorded versus temperature. Reference wells contained RORγt without compounds, and the assay conditions were as follows: • 0.065 mg/mL RORγt • 60 μM 1,8-ANS • 100 mM Hepes, pH 7.0 • 10 mM NaCl • 2.5 mM GSH • 0.002% Tween-20
Project compounds were arranged in a pre-dosed mother plate (Greiner Bio-one) wherein compounds are serially diluted in 100% DMSO by 1:2 from a high concentration of 10 mM over 12 columns within a series (column 12 is a reference well containing DMSO, no compound). The compounds were robotically dispensed directly into assay plates (1x=[…]) using a Hummingbird capillary liquid handling instrument (Digilab). Following compound dispense, protein and dye in buffer was added to achieve the final assay volume of 3 μL, followed by 1 μL of silicone oil.

For the next test, the target named is human RORγt LBD (Homo sapiens (Human), UniProt P51449). In words: RORγt reporter assay (GAL4-RORγt LBD luciferase, HEK293T cells). In kind it is cell-based. Conditions: for RORγt reporter Assay, % inhibition @ 6 μM / IC50: HEK293T cells; for IC50: 24 hours compound treatment; for inhibition at 6 µM: HEK-293T, read-out: RORγt reporter Assay, % inhibition @ 6 μM, 6 μM, HEK293T cells.

Test [2] relates to IL-17 production by CD4 T cells. Kind of test: Human Th17 assay. In kind it is cell-based. Conditions: Homo sapiens, CD4+ T, 72 h, IL-17 in supernatant after 3 days, human CD4+ T cells under Th17 differentiation. The text has this:
The human Th17 assay tests the effect of RORγt modulatory compounds on IL-17 production by CD4 T cells under conditions which favor Th17 differentiation.
Total CD4^+ T cells were isolated from the peripheral blood mononuclear cells (PBMC) of healthy donors using a CD4^+ T cell isolation kit II, following the manufacturer's instructions (Miltenyi Biotec). Cells were resuspended in a medium of RPMI-1640 supplemented with 10% fetal bovine serum, penicillin, streptomycin, glutamate, and β-mercaptoethanol and were added to 96-well plates at 1.5×10^5 per 100 μL per well. 50 μL of compound at titrated concentrations in DMSO were added into each well at final DMSO concentration at 0.2%. Cells were incubated for 1 hour, then 50 μL of Th17 cell differentiation medium was added to each well. The final concentrations of antibodies and cytokines (R&D Systems) in differentiation medium were: 3×10^6/mL anti-CD3/CD28 beads (prepared using human T cell activation/expansion kit, Miltenyi Biotec), 10 μg/mL anti-IL4, 10 μg/mL anti-IFNγ, 10 ng/mL IL113, 10 ng/mL IL23, 50 ng/mL IL6, 3 ng/mL TGFβ and 20 U/mL IL2. Cells were cultured at 37° C. and 5% CO2 for 3 days. Supernatants were collected and the accumulated IL-17 in culture was measured by using MULTI-SPOT® Cytokine Plate following manufacture's instruction (Meso Scale Discovery). The plate was read using Sector Imager 6000, and IL-17 concentration was extrapolated from the standard curve. The IC50s were determined by GraphPad.

Values joined by “and” are separate entries in the source; they are usually repeats but may differ in a detail not shown here. Equal entries are not always repeated. Structures can show the parent of a compound that is named as a salt.

Chain of human RORγt LBD (P51449 258-518): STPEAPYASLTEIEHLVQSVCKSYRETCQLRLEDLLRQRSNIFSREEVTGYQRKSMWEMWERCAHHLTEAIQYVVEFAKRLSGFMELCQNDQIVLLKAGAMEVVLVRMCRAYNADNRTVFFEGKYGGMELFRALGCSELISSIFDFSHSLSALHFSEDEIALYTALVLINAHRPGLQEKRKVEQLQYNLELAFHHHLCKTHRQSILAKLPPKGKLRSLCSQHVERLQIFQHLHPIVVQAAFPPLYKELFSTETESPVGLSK
Chain of human RORγt ligand binding domain (RORγt LBD) (P51449 other isoform, or with tags, fused parts or gaps): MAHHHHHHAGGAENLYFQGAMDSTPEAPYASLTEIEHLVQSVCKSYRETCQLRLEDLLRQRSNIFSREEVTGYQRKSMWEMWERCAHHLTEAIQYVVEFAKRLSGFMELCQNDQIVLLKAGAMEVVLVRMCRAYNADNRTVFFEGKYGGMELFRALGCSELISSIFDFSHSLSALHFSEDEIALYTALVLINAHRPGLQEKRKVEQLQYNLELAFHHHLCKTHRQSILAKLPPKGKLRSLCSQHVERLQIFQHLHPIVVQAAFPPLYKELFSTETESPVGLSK

As usually defined, the Kd is a measure of binding affinity in units of concentration. What is called IC50 is the point on the concentration scale where inhibition reaches its midpoint. Lower therefore signals greater potency in that assay. For the compound `Cn1cncc1C(O)(c1ccc(C(F)(F)F)nc1)c1ccc2nc(C#N)c(Oc3ccccc3)c(C#N)c2c1` (single isomer, unassigned) [Example 22b, 6-(Hydroxy(1-methyl-1H-imidazol-5-yl)(6-(trifluoromethyl)pyridin-3-yl)methyl)-3-phenoxyquinoline-2,4-dicarbonitrile], in test [1], the Kd was 0.0029 µM. In addition, at human RORγt LBD, the “RORγt reporter Assay, % inhibition @ 6 μM” value is on record as 48%; the IC50 is ~6 µM and > 6 µM.
With `Cn1cncc1C(O)(c1ccc(C(F)(F)F)nc1)c1ccc2nc(C#N)c(Oc3ccccc3)c(C#N)c2c1` (single isomer, unassigned) [Example 22c, 6-(Hydroxy(1-methyl-1H-imidazol-5-yl)(6-(trifluoromethyl)pyridin-3-yl)methyl)-3-phenoxyquinoline-2,4-dicarbonitrile], the Kd in test [1] was 0.097 µM. At human RORγt LBD, the “RORγt reporter Assay, % inhibition @ 6 μM” value is listed as 88% and the IC50 turned out to be 0.68 µM.
The term inhibition denotes the share of the control response that was lost under treatment. As to `Cn1cncc1C(O)(c1ccc(Cl)cc1)c1ccc2nc(Cl)c(Oc3ccccc3)c(Cl)c2c1` (stereo not shown) [Example 1, (4-Chlorophenyl)(2,4-dichloro-3-phenoxyquinolin-6-yl)(1-methyl-1H-imidazol-5-yl)methanol], in test [1], the Kd was 0.11 µM. At human RORγt LBD, the IC50 was 0.67 µM and the inhibition at 6 µM was 86%.
On to `CCN(CC)c1nc2ccc(C(O)(c3ccc(Cl)cc3)c3cncn3C)cc2c(Cl)c1Oc1ccccc1` (stereo not shown) [Example 3a, (4-Chloro-2-(diethylamino)-3-phenoxyquinolin-6-yl)(4-chlorophenyl)(1-methyl-1H-imidazol-5-yl)methanol], for which the Kd in test [1] was 0.059 µM. In test [2], this compound showed an IC50 of 0.2 µM. At human RORγt LBD, the IC50 was determined as 0.12 µM and the inhibition at 6 µM is 96%.
With `CN(C)c1nc2ccc(C(O)(c3ccc(Cl)cc3)c3cncn3C)cc2c(Cl)c1Oc1ccccc1` (stereo not shown) [Example 16, (4-Chloro-2-(dimethylamino)-3-phenoxyquinolin-6-yl)(4-chlorophenyl)(1-methyl-1H-imidazol-5-yl)methanol], the Kd in test [1] was 0.031 µM. The results for the IC50 (in test [2]; at human RORγt LBD) were 0.1 µM and 0.36 µM, respectively. Moreover, on human RORγt LBD, the inhibition at 6 µM was 94%.
Take `Cn1cncc1C(O)(c1ccc(Cl)cc1)c1ccc2nc(C#N)c(Oc3ccccc3)c(C#N)c2c1` (stereo not shown) [Example 20, 6-((4-chlorophenyl)(hydroxy)(1-methyl-1H-imidazol-5-yl)methyl)-3-phenoxyquinoline-2,4-dicarbonitrile.TFA]: in test [1], the Kd is 0.0057 µM. This compound also yielded an IC50 in test [2] of 0.04 µM. Further, at human RORγt LBD, the IC50 was found to be 0.11 µM and the inhibition at 6 µM came out at 97%.
`CCN(CC)c1nc2ccc(C(O)(c3ccc(Cl)cc3)c3cncn3C)cc2c(C(F)(F)F)c1Oc1ccc(Cl)cc1` (stereo not shown) [Example 26, (3-(4-Chlorophenoxy)-2-(diethylamino)-4-(trifluoromethyl)quinolin-6-yl)(4-chlorophenyl)(1-methyl-1H-imidazol-5-yl)methanol.TFA] had an IC50 in test [2] of 0.51 µM. Also, at human RORγt LBD, the inhibition at 6 µM came to 89%.
Regarding `CCN(CC)c1nc2ccc(C(O)(c3ccc(C(F)(F)F)nc3)c3cncn3C)cc2c(C(F)(F)F)c1Oc1ccc(Cl)cc1` (stereo not shown) [Example 27a, (3-(4-Chlorophenoxy)-2-(diethylamino)-4-(trifluoromethyl)quinolin-6-yl)(1-methyl-1H-imidazol-5-yl)(6-(trifluoromethyl)pyridin-3-yl)methanol], the IC50 in test [2] amounted to 0.18 µM. In addition, the inhibition at 6 µM at human RORγt LBD turned out to be 89%.
As to `CCN(CC)c1nc2ccc(C(O)(c3ccc(OC)nc3)c3cncn3C)cc2c(C(F)(F)F)c1Oc1ccc(Cl)cc1` (stereo not shown) [Example 28, (3-(4-Chlorophenoxy)-2-(diethylamino)-4-(trifluoromethyl)quinolin-6-yl)(6-methoxypyridin-3-yl)(1-methyl-1H-imidazol-5-yl)methanol.TFA], the 50% inhibitory concentration (IC50) in test [2] is 0.12 µM. On human RORγt LBD, the inhibition at 6 µM was found to be 99%.
Take `Cn1cncc1C(O)(c1ccc(C(F)(F)F)nc1)c1ccc2nc(N3CCC3)c(Oc3ccc(Cl)cc3)c(Cl)c2c1` (stereo not shown) [Example 30a, (2-(Azetidin-1-yl)-4-chloro-3-(4-chlorophenoxy)quinolin-6-yl)(1-methyl-1H-imidazol-5-yl)(6-(trifluoromethyl)pyridin-3-yl)methanol]: in test [1], the Kd was 0.0018 µM. Moreover, on human RORγt LBD, the IC50 was 0.14 µM and the inhibition at 6 µM came to 93%.
In the case of `CCOc1nc2ccc(C(O)(c3cccnc3)c3cccc(Cl)c3)cc2c(Cl)c1N(C)c1ccccc1` (stereo not shown) [Example 36, (4-Chloro-2-ethoxy-3-(methyl(phenyl)amino)quinolin-6-yl)(3-chlorophenyl) (pyridin-3-yl)methanol.TFA], the Kd in test [1] was 0.032 µM. The IC50 in test [2] turned out to be 0.16 µM. In addition, at human RORγt LBD, the midpoint of inhibition, the IC50, lay at 0.089 µM and the inhibition at 6 µM turned out to be 89%.
With `CN(c1ccccc1)c1c(Cl)nc2ccc(C(O)(c3ccc(Cl)cc3)c3cncn3C)cc2c1Cl` (stereo not shown) [Example 38, (4-Chlorophenyl)(2,4-dichloro-3-(methyl(phenyl)amino)quinolin-6-yl)(1-methyl-1H-imidazol-5-yl)methanol], the Kd in test [1] is 0.035 µM. Further, at human RORγt LBD, the IC50 is 0.52 µM and ~1 µM; the inhibition at 6 µM turned out to be 85%.
For `CCN(CC)c1nc2ccc(C(O)(c3ccc(Cl)cc3)c3cncn3C)cc2c(Cl)c1Nc1ccccc1` (stereo not shown) [Example 45, (4-Chloro-2-(diethylamino)-3-(phenylamino)quinolin-6-yl)(4-chlorophenyl)(1-methyl-1H-imidazol-5-yl)methanol.TFA], the Kd in test [1] is 0.27 µM. At human RORγt LBD, the IC50 is 0.81 µM and the inhibition at 6 µM is 91%.
